Laboratory results taken from ChEMBL document CHEMBL5291721, “A preclinical secondary pharmacology resource illuminates target-adverse drug reaction associations of marketed drugs” (Nat Commun, 2023).

Legend:
[1] = biological target: T1, Alpha-1A adrenergic receptor (Homo sapiens, UniProt P35348)
T1 sequence (P35348 whole entry): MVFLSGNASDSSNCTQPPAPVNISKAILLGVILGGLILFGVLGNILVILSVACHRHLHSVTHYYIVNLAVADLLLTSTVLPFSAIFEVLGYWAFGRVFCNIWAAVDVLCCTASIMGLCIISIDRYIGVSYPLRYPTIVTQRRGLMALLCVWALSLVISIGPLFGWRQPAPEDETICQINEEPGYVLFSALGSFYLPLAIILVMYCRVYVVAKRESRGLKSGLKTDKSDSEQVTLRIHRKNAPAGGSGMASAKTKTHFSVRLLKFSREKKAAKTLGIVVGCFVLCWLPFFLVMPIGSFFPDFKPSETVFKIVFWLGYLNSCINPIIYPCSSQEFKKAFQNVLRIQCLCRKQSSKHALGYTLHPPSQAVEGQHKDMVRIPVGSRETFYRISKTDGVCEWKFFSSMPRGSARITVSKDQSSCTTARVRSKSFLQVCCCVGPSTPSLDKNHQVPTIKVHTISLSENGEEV

[2] = biological target: T2, Corticotropin-releasing factor receptor 2 (Homo sapiens, UniProt Q13324)
T2 sequence (Q13324 whole entry): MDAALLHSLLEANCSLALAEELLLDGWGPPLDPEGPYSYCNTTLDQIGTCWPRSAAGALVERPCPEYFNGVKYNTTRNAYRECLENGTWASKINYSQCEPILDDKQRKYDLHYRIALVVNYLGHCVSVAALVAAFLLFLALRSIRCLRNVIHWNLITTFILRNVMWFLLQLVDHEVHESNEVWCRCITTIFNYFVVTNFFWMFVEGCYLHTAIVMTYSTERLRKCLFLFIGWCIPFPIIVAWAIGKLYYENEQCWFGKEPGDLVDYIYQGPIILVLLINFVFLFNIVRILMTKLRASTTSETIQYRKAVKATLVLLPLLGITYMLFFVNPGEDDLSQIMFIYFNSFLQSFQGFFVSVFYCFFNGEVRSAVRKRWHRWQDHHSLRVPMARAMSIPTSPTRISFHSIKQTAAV

[3] = biological target: T3, Endothelin receptor type B (Homo sapiens, UniProt P24530)
T3 sequence (P24530 whole entry): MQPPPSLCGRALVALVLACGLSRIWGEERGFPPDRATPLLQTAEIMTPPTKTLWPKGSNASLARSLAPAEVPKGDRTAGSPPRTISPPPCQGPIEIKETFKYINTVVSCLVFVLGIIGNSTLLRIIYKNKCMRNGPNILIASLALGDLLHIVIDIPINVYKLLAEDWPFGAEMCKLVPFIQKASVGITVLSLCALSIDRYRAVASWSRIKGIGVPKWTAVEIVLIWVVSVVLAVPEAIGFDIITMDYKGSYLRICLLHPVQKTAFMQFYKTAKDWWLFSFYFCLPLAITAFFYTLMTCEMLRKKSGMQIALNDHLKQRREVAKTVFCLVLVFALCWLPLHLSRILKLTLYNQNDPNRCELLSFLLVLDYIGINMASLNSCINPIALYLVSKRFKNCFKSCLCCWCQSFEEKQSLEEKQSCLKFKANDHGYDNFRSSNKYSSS

Estrogen receptor = biological target: T4, Estrogen receptor (Homo sapiens, UniProt P03372)
T4 sequence (P03372 whole entry): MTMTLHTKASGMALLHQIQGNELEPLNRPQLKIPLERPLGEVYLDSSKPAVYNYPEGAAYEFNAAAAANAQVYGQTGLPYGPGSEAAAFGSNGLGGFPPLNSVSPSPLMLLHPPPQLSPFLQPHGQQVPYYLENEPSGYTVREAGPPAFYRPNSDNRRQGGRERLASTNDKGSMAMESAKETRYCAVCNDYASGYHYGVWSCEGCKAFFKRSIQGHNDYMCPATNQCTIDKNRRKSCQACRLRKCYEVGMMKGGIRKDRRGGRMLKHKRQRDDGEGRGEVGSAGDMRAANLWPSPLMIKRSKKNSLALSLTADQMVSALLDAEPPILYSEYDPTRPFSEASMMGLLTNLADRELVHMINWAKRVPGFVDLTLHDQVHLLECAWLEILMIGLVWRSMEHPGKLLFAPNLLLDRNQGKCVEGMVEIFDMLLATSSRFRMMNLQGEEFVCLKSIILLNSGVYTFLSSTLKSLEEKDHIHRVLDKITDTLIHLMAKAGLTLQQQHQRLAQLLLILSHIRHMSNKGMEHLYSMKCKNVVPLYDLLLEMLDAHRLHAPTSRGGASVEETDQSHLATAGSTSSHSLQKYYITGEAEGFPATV

Estrogen receptor beta = Estrogen receptor beta (Homo sapiens, UniProt Q92731)
Chain of Estrogen receptor beta (Q92731 whole entry): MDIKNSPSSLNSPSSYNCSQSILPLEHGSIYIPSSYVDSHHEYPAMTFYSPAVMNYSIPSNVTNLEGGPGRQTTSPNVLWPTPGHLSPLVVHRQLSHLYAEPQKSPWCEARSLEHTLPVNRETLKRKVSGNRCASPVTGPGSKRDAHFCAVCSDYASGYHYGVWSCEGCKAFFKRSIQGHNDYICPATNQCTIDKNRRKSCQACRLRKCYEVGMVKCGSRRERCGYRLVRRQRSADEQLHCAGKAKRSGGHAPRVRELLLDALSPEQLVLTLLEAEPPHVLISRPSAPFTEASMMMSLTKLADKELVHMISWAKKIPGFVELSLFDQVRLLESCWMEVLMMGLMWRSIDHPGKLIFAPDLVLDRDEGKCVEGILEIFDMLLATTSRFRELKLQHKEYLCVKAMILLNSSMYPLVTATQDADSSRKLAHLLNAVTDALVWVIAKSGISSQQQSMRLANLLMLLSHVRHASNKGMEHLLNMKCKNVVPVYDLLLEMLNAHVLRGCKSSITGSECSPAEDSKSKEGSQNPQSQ

Glucagon receptor = Glucagon receptor (Homo sapiens, UniProt P47871)
Chain of Glucagon receptor (P47871 whole entry): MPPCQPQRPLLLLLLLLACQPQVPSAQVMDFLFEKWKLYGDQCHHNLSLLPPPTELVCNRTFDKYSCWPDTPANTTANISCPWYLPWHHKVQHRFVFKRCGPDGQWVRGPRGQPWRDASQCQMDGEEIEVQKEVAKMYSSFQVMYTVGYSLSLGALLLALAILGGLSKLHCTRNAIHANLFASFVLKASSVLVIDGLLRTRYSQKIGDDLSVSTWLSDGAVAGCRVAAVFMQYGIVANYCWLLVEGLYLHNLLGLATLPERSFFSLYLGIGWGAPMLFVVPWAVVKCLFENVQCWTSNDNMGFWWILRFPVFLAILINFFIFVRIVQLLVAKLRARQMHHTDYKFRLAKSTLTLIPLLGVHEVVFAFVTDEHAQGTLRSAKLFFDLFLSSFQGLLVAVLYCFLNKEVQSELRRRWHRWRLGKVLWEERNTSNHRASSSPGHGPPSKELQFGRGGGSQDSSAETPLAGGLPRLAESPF

[4] = biological target: 5-hydroxytryptamine receptor 6 (Homo sapiens, UniProt P50406)
Chain of 5-hydroxytryptamine receptor 6 (P50406 whole entry): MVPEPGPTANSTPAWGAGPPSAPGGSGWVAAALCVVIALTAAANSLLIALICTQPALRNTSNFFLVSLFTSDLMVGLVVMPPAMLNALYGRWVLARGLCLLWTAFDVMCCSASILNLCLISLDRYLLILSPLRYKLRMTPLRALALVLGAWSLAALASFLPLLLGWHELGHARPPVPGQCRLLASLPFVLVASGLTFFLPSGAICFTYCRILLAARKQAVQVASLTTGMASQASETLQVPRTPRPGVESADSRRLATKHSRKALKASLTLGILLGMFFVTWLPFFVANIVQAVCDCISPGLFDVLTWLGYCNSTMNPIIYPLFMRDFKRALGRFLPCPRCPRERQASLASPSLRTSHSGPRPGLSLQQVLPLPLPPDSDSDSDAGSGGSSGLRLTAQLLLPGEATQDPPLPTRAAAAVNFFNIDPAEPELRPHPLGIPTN

[5] = biological target: Sodium channel protein type 5 subunit alpha (Homo sapiens, UniProt Q14524); type: functional, cell-based
Chain of Sodium channel protein type 5 subunit alpha (Q14524 whole entry): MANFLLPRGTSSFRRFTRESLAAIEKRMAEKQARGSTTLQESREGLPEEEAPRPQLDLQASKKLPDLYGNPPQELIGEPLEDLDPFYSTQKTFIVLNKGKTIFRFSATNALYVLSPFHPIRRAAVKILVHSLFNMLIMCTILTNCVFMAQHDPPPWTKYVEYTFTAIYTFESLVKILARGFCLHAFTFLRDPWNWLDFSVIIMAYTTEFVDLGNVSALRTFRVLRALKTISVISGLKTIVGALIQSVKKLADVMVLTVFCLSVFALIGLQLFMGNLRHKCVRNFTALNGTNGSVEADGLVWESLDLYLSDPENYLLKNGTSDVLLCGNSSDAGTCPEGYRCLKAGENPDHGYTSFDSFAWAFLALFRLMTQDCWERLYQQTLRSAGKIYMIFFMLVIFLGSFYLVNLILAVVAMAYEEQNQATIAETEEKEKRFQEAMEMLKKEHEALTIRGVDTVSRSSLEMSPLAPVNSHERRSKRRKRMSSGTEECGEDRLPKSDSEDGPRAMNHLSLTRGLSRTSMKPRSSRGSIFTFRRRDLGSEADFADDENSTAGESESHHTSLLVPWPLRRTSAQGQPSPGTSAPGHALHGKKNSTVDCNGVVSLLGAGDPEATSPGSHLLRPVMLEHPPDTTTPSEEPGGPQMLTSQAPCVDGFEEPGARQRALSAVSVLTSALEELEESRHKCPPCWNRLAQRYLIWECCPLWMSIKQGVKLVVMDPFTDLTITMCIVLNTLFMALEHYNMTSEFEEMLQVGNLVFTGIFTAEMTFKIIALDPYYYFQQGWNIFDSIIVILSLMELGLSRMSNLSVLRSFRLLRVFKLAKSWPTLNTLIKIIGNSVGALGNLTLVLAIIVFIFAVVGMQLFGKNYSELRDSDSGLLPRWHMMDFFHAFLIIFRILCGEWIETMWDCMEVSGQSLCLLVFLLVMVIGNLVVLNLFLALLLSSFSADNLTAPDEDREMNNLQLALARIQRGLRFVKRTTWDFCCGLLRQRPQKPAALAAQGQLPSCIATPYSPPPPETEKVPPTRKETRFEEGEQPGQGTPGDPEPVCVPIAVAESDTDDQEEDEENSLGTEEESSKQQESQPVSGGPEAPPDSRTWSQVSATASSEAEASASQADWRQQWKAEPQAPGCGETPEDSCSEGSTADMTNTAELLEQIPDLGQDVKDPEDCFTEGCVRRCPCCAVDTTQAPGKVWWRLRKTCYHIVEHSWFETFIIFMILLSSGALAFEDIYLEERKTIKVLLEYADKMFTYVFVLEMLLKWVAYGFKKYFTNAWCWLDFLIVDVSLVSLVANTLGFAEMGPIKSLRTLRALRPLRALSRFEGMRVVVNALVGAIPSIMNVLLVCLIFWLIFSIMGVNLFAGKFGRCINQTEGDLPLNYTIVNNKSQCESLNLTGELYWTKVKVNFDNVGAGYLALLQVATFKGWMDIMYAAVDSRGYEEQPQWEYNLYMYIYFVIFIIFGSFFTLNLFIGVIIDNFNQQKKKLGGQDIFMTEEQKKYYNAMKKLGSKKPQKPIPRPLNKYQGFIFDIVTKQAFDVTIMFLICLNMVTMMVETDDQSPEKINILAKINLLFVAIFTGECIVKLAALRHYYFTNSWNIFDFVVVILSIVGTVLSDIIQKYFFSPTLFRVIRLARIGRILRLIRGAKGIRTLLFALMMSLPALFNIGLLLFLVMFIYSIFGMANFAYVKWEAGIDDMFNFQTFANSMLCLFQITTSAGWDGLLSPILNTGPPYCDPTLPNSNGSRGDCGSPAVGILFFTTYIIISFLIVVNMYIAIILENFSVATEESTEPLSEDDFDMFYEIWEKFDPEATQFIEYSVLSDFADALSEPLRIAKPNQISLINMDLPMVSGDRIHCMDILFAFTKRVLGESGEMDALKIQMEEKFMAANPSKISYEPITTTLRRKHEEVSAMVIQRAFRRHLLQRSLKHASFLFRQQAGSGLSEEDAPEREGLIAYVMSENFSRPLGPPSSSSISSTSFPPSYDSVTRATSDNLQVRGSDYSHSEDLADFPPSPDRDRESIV

[6] = biological target: T5, Alpha-2B adrenergic receptor (Homo sapiens, UniProt P18089)
T5 sequence (P18089 whole entry): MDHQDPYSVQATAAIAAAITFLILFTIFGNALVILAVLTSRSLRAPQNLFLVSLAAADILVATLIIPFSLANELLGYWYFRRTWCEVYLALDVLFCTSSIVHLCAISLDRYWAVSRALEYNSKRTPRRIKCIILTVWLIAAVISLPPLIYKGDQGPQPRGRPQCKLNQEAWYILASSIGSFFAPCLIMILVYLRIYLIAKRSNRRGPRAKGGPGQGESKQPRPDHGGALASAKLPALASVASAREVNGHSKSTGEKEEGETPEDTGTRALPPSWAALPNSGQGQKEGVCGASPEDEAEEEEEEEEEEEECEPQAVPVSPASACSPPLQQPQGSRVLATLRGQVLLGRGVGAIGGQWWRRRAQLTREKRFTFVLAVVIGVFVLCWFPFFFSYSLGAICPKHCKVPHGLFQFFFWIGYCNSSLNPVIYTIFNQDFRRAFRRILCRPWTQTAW

[7] = biological target: 5-hydroxytryptamine receptor 2A (Homo sapiens, UniProt P28223); type: functional, cell-based
Chain of 5-hydroxytryptamine receptor 2A (P28223 whole entry): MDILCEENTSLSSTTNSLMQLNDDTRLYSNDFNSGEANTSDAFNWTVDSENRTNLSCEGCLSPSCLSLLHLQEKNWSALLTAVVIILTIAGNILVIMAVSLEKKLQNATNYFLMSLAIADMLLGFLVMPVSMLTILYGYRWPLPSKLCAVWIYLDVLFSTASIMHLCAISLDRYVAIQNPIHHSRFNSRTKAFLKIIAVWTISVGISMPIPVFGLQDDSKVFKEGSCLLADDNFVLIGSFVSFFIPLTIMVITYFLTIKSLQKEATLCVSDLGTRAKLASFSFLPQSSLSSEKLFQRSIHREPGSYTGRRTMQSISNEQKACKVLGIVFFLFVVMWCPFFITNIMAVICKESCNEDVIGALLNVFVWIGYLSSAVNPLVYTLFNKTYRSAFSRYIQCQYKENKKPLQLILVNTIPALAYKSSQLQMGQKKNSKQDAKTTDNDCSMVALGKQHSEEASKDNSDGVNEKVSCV

[8] = biological target: Synaptic vesicular amine transporter (Rattus norvegicus, UniProt Q01827); type: functional
Chain of Synaptic vesicular amine transporter (Q01827 whole entry): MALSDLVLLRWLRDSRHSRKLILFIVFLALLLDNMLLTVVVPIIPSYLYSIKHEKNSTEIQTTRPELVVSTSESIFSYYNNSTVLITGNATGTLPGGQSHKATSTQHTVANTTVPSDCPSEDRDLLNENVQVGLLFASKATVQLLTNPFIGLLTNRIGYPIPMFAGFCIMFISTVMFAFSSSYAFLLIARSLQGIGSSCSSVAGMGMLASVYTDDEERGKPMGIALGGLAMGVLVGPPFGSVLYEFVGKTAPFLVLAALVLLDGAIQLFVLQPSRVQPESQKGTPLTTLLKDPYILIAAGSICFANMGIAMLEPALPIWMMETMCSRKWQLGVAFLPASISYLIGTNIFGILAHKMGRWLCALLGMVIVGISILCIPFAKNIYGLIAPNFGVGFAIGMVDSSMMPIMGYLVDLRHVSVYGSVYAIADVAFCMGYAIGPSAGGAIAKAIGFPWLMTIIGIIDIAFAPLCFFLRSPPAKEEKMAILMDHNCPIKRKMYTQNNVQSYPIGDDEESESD

D(1A) dopamine receptor = D(1A) dopamine receptor (Homo sapiens, UniProt P21728)
Chain of D(1A) dopamine receptor (P21728 whole entry): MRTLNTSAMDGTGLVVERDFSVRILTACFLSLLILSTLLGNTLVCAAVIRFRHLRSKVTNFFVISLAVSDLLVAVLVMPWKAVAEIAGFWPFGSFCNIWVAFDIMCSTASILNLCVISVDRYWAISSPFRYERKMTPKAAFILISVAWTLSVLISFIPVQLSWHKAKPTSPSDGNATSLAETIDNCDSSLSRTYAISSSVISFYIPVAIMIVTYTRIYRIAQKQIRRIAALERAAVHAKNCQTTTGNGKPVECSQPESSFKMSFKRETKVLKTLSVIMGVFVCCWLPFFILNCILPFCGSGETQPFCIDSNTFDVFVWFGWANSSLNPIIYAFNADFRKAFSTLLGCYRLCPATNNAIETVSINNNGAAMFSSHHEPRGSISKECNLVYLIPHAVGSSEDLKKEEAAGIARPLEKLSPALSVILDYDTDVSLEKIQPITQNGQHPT
Note: assay procedure not described here.

Row | SMILES | AC50 [1] [µM] | AC50 [2] [µM] | AC50 [3] [µM] | AC50 (Estrogen receptor) [µM] | AC50 (Estrogen receptor beta) [µM] | AC50 (Glucagon receptor) [µM] | AC50 [6] [µM] | also measured
1 | CCOc1nc2cccc(C(=O)O)c2n1Cc1ccc(-c2ccccc2-c2nnn[nH]2)cc1 | > 10 | > 30 | > 30 | > 30 | > 30 | > 30 |  | AC50 [4]: > 10 µM; AC50 [5]: > 50 µM
2 | CCCc1nc2c(C)cc(-c3nc4ccccc4n3C)cc2n1Cc1ccc(-c2ccccc2C(=O)O)cc1 | > 10 | > 30 | > 30 | > 30 | > 30 | > 30 | > 30 | AC50 [4]: > 10 µM; AC50 [5]: 27.3 µM
3 | CC(=O)Nc1ccc(CC(=O)O)cc1 [ACTARIT] |  |  |  | > 30 |  |  | > 30 | AC50 [7]: > 30 µM
4 | CC(C(=O)O)c1ccc2oc(-c3ccc(Cl)cc3)nc2c1 (stereo not drawn) [BENOXAPROFEN] |  |  |  | > 30 |  |  |  | 
5 | O=C(O)c1ccccc1 [BENZOIC ACID] |  |  |  |  |  |  |  | AC50 [5]: > 50 µM; AC50 [8]: 18 µM
6 | Nc1c(CC(=O)O)cccc1C(=O)c1ccc(Br)cc1 [BROMFENAC] |  |  |  |  |  |  |  | AC50 (D(1A) dopamine receptor): > 30 µM
7 | CC1(C)S[C@@H]2[C@H](NC(=O)C(C(=O)O)c3ccccc3)C(=O)N2[C@H]1C(=O)O (stereo partly drawn) [CARBENICILLIN] |  |  |  |  |  |  | > 30 | AC50 [7]: > 30 µM
8 | CC=CC1=C(C(=O)O)N2C(=O)[C@@H](NC(=O)[C@H](N)c3ccc(O)cc3)[C@H]2SC1 [CEFPROZIL] |  |  |  | > 30 |  |  | > 30 | AC50 [7]: > 30 µM
9 | CCCNC(=O)NS(=O)(=O)c1ccc(Cl)cc1 [CHLORPROPAMIDE] | 5.7 | > 30 | > 30 | > 30 | > 30 | > 30 |  | 
10 | C[N+](C)(C)CCOP(=O)(O)OP(=O)([O-])OC[C@H]1O[C@@H](n2ccc(N)nc2=O)[C@H](O)[C@@H]1O [CITICOLINE] |  |  |  |  |  |  | > 30 | AC50 [7]: > 30 µM
11 | Cc1nc(Nc2ncc(C(=O)Nc3c(C)cccc3Cl)s2)cc(N2CCN(CCO)CC2)n1 [DASATINIB] | > 10 |  | > 10 |  |  | > 10 | > 30 | AC50 [4]: > 10 µM
12 | O=C(O)Cc1ccccc1Nc1c(Cl)cccc1Cl [DICLOFENAC] | 5 | > 30 | > 30 |  | > 30 | > 30 |  | AC50 [4]: > 10 µM; AC50 [5]: > 30 µM
13 | CN[C@@H]1[C@H](O[C@H]2[C@H](O[C@H]3[C@H](O)[C@@H](O)[C@H](NC(=N)N)[C@@H](O)[C@@H]3NC(=N)N)O[C@@H](C)[C@]2(O)CO)O[C@@H](CO)[C@H](O)[C@H]1O [DIHYDROSTREPTOMYCIN] |  |  |  |  |  |  |  | AC50 (D(1A) dopamine receptor): > 30 µM
14 | O=C(O)Cc1ccccc1Oc1ccc(Cl)cc1Cl [FENCLOFENAC] | > 10 | > 30 | > 30 | > 30 |  | > 30 | > 10 | 
15 | Cc1ccc(C)c(OCCCC(C)(C)C(=O)O)c1 [GEMFIBROZIL] | 13.7 | > 30 | > 30 | > 30 | > 30 | > 30 |  | 
16 | C#C[C@]1(O)C=C[C@H]2[C@@H]3CCC4=CC(=O)CC[C@@H]4[C@H]3CC[C@@]21CC [GESTODENE] |  |  |  |  |  |  |  | AC50 (D(1A) dopamine receptor): > 30 µM

Row | SMILES | AC50 [1] [µM] | AC50 [2] [µM] | AC50 [3] [µM] | AC50 (Estrogen receptor) [µM] | AC50 (Estrogen receptor beta) [µM] | AC50 (Glucagon receptor) [µM] | AC50 [6] [µM] | also measured
17 | COc1ccccc1OC1(C)OC(=O)c2ccccc2O1 (stereo not drawn) [GUAIMESAL] |  |  |  | > 30 |  |  |  | 
18 | CCCCCCCN(CC)CCCC(O)c1ccc(NS(C)(=O)=O)cc1 (stereo not drawn) [IBUTILIDE] |  |  |  |  |  |  | 18 | AC50 [7]: > 30 µM; AC50 [5]: > 30 µM
19 | COc1cc(C(C)=O)ccc1OCCCN1CCC(c2noc3cc(F)ccc23)CC1 [ILOPERIDONE] |  |  |  |  |  |  | 0.105 | AC50 [4]: 0.257 µM
20 | CC[C@H](C)C(=O)O[C@H]1C[C@@H](C)C=C2C=C[C@H](C)[C@H](CC[C@@H]3C[C@@H](O)CC(=O)O3)[C@H]21 [LOVASTATIN] | > 10 | > 30 | > 30 | > 30 | > 30 | > 30 |  | AC50 [5]: > 30 µM
21 | CC[C@@H](CO)NC(=O)[C@@H]1C=C2c3cccc4c3c(cn4C)C[C@H]2N(C)C1 [METHYSERGIDE] | > 10 | > 30 | > 30 | > 10 | 24.5 | > 30 |  | 
22 | CNC(=C[N+](=O)[O-])NCCSCc1csc(CN(C)C)n1 [NIZATIDINE] | > 10 |  |  |  |  |  |  | 
23 | CN1Cc2c(N)cccc2C(c2ccccc2)C1 (stereo not drawn) [NOMIFENSINE] |  |  |  |  |  |  | > 30 | AC50 [7]: > 30 µM; AC50 [8]: 28.8 µM
24 | C=CC(=O)Nc1cccc(Oc2nc(Nc3ccc(N4CCN(C)CC4)cc3)nc3ccsc23)c1 [OLMUTINIB] |  |  |  |  |  |  |  | AC50 [8]: 0.44 µM
25 | CCCc1cc(=O)[nH]c(=S)[nH]1 [PROPYLTHIOURACIL] | > 10 |  |  | > 10 |  |  |  | 
26 | Cn1cc(C(=O)[C@@H]2CCc3nc[nH]c3C2)c2ccccc21 [RAMOSETRON] |  |  |  | > 30 |  |  | 0.34 | AC50 [7]: > 30 µM
27 | CN(CCOc1ccc(CC2SC(=O)NC2=O)cc1)c1ccccn1 (stereo not drawn) [ROSIGLITAZONE] |  | > 30 | > 30 | > 30 | > 30 | > 30 |  | AC50 [4]: > 10 µM; AC50 [5]: > 30 µM
28 | Cc1ccccc1C(=O)Nc1ccc(C(=O)N2CCCC(O)c3cc(Cl)ccc32)c(C)c1 (stereo not drawn) [TOLVAPTAN] |  |  |  |  |  |  |  | AC50 [8]: > 30 µM
29 | CC(C)C[C@H](NC(=O)[C@@H](O)[C@H](N)Cc1ccccc1)C(=O)O [UBENIMEX] |  |  |  | > 30 |  |  |  | AC50 (D(1A) dopamine receptor): > 30 µM
30 | CC(C)[C@H](N)C(=O)OCCOCn1cnc2c(=O)[nH]c(N)nc21 [VALACYCLOVIR] | > 10 | > 30 | > 30 | > 30 | > 30 | > 30 |  | 
31 | COc1cc(C(=O)NS(=O)(=O)c2ccccc2C)ccc1Cc1cn(C)c2ccc(NC(=O)OC3CCCC3)cc12 [ZAFIRLUKAST] | > 10 |  |  | > 30 |  |  |  | 
32 | O=C1Cc2cc(CCN3CCN(c4nsc5ccccc45)CC3)c(Cl)cc2N1 [ZIPRASIDONE] | 0.0275 | > 30 | > 30 | > 30 | > 30 | > 30 |  | AC50 [5]: > 50 µM; AC50 [8]: 0.0035 µM
